Reference: patent publication US8163509B2, “Biological markers predictive of anti-cancer response to insulin-like growth factor-1 receptor kinase inhibitors” (The Regents of the University of Colorado, A Body Corporate, priority 2008, dated 2012)
pIC50: −log10 of the molar value.

Legend:
[1] = test system: human tumor explants; assay: In vivo growth study, primary CRC xenografts (human tumor explants); set-up: species or system athymic nude mice; settings: OSI-906 40 mg/kg, 28 days
Experimental: In vivo Growth Studies: Five to six-week-old female athymic nude mice (Harlan Sprague Dawley) were used. The research protocol was approved by the University of Colorado Denver, Animal Care and Use Committee. Mice were caged in groups of five and kept on 12-h light/dark cycle and provided with sterilized food and water ad libitum. All of the studies were conducted in accordance with the NIH guidelines for the care and use of laboratory animals, and animals were housed in a facility accredited by the American Association for Accreditation of Laboratory Animal Care. Animals were allowed to acclimate for at least 7 days before any handling.
The primary CRC xenografts were generated according to published methodology (Rubio-Viqueira B, et al. Clin Cancer Res 2006; 12(15):4652-61.). Briefly, surgical specimens of patients operated at the University of Colorado Hospital were reimplanted s.c. to 5 mice for each patient. […] Mice were monitored daily for signs of toxicity and were weighed twice weekly. Tumor size was evaluated two times per week by caliper measurements using the following formula: tumor volume=[length×width^2][…]. Relative tumor growth index was calculated by relative tumor growth of treated mice divided by relative tumor growth of control mice since the initiation of therapy (T/C). […]

[2] = test system: Colo320 CRC cell line; assay: SRB proliferation assay, 72 h; format: cell-based; settings: Homo sapiens, COLO 320, 0.05-5 μM, read-out: IC50, growth inhibition by PQIP (SRB)
Experimental: Cell Lines and Culture. […] human colon cancer cell lines, were obtained from American Type Culture Collection (Manassas, Va.). Cells were grown in RPMI medium supplemented with 10% fetal bovine serum, 1% non-essential amino acids, 1% penicillin/streptomycin and were maintained at 37° C. in an incubator under an atmosphere containing 5% CO2. The cells were routinely screened for the presence of mycoplasma (MycoAlert, Cambrex Bio Science, Baltimore, Md.) and were exposed to PQIP when they reached approximately 70% confluence.
The CRC cell lines were treated with a range of concentrations of PQIP (from 0.05-5 μM) for 72 hours.

[3] = test system: HCT116 CRC cell line; assay: Gene expression analysis post PQIP exposure (gene array); format: cell-based, human; settings: 400 nM PQIP, 72 hours
Experimental: (§1) Microarray Analysis: Cells were plated at 2×106 in 6-well plates 24 h prior to harvest. After 24 hours cells were rinsed twice with PBS, and RNA was prepared using a RNeasy Plus mini kit (Qiagen, Valencia, Calif.). RNA stabilization, isolation, and microarray sample labeling were carried out using standard methods for reverse transcription and one round of in vitro transcription. HG-U133 set microarrays were hybridized with 10 μg of cRNA and processed according to the protocols of the manufacturer (Affymetrix). Hybridization signals and detection calls were generated in BioConductor, using the germa and affy software packages. Microarray data was analyzed using BRB ArrayTools v3.2 developed by Dr. Richard Simon and Amy Peng Lam.
(§2) Gene Expression Analysis Post PQIP Exposure: In order to identify genes that are modulated following exposure to PQIP, 5 sensitive and 5 resistant CRC cell lines were treated with 400 nM PQIP for 72 hours, total RNA was purified, and gene array analysis was performed as described previously. The gene expression profiles following PQIP exposure were compared to the respective untreated profiles. To characterize changes in gene expression profile, one PQIP resistant (HCT116) and one PQIP sensitive (HT29) tumor cell type was examined, and caldesmon, metallothioneins, ALDH1A1, and MAP2K6 expression levels were analyzed.

[4] = test system: HT29 CRC cell line; assay: as above; format: cell-based, human; settings: 400 nM PQIP, 72 hours
Experimental: as §1, §2

[5] = molecular target: T1, IGF1R (Homo sapiens, UniProt P08069); assay: Meso Scale Discovery (MSD) assay of phosphorylated IGF1R; format: cell-based; settings: HT29 and HCT116, 72 h
T1 construct: endogenous in cells; host or cells: HT29 and HCT116 CRC cell lines
Experimental: Detection of IGF1R using Meso Scale Discovery assays (MSD): HT29 and HCT116 CRC cell lines were seeded into 6-well plates, allowed to attach for 24 hours and exposed to PQIP and chemotherapy (SN38, or Oxaliplatin) alone or in combination for 72 h. Following exposure, cells were rinsed with PBS and scraped into RIPA lysis buffer containing protease inhibitors, EDTA, NaF, and sodium orthovanadate. Total protein was quantified using the BioRad Dc Protein Assay (BioRad, Hercules, Calif.). Fifty micrograms of protein in 25 μL was added per well for MSD detection of phosphorylated IGF-1R according to manufacturer's instructions (Meso Scale Discovery, Gaithersburg, Md.).
Cells were exposed to PQIP (0.4 μmol/L) and chemotherapy (SN38 0.004 μmol/L, or Oxaliplatin 1.0 μmol/L) alone or in combination for 72 h. Protein was extracted and analyzed for phospho/total IGF1R levels using a Meso Scale Discovery (MSD; Gaithersburg, Md. 20877) assay.

T1 sequence (P08069 31-1367): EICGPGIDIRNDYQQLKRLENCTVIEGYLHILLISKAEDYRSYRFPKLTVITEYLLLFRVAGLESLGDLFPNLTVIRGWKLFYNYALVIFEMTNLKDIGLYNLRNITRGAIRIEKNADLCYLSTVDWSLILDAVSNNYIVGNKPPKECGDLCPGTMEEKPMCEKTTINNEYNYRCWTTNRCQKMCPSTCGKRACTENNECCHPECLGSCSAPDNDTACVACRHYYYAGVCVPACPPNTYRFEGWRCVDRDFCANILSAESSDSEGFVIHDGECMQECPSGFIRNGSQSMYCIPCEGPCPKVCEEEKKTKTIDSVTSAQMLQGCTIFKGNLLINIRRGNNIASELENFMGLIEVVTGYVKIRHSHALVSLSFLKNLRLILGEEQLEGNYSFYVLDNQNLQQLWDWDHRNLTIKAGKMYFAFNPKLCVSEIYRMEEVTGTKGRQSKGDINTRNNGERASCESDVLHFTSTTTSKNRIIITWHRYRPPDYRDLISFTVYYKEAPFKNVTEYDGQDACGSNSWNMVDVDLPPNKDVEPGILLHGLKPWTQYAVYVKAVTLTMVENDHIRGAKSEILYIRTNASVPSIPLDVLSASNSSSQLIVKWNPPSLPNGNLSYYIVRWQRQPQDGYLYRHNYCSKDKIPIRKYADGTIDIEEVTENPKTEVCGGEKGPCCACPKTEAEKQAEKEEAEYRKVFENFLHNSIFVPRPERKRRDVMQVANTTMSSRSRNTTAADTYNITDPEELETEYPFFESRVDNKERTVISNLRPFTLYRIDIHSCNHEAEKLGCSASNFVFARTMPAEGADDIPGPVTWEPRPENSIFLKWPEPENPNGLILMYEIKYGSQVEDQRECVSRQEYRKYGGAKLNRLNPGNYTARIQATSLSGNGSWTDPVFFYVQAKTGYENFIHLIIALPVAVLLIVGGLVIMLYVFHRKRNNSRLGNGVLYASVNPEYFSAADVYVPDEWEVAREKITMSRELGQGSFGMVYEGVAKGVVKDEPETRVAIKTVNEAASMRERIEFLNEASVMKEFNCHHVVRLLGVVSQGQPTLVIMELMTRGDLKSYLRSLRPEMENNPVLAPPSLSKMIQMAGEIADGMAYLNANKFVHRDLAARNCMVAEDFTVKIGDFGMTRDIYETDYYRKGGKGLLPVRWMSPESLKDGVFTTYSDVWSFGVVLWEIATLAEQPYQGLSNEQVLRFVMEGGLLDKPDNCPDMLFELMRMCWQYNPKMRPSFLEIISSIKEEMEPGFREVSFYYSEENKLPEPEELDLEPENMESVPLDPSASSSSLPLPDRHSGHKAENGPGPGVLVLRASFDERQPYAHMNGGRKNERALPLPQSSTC

C[C@]1(O)C[C@@H](c2nc(-c3ccc4ccc(-c5ccccc5)nc4c3)c3c(N)nccn32)C1 [OSI-906, cis-3-[8-amino-1-(2-phenyl-quinolin-7-yl)-imidazo[1,5-a]pyrazin-3-yl]-1-methyl-cyclobutanol]
TGI (relative tumor growth index, T/C) ([1]; three explants predicted as resistant): 130-200% | TGI (relative tumor growth index, T/C) ([1]; two explants predicted as sensitive): 21-28%

CN1CCN([C@H]2C[C@@H](c3nc(-c4ccc5ccc(-c6ccccc6)nc5c4)c4c(N)nccn43)C2)CC1 [PQIP, cis-3-[3-(4-Methyl-piperazin-1-yl)-cyclobutyl]1-(2-phenyl-quinolin-7-yl)-imidazo[1,5-a]pyrazin-8-ylamine]
pIC50 [2]: > 6.30 | Fold change of post exposure PQIP to untreated, ALDH1A1 expression [3]: 2.3 fold | Fold change of post exposure PQIP to untreated, CALD1 expression [3]: 1.9 fold | Fold change of post exposure PQIP to untreated, MAP2K6 expression [3]: 0.7 fold | Fold change of post exposure PQIP to untreated, MT1E expression [3]: 1.2 fold | Fold change of post exposure PQIP to untreated, MT1F expression [3]: 1.6 fold | Fold change of post exposure PQIP to untreated, MT1G expression [3]: 1.1 fold | Fold change of post exposure PQIP to untreated, MT1H expression [3]: 1.8 fold | Fold change of post exposure PQIP to untreated, MT1M expression [3]: 1.5 fold | Fold change of post exposure PQIP to untreated, MT1X expression [3]: 2.0 fold | Fold change of post exposure PQIP to untreated, MT2A expression [3]: 1.0 fold | Fold change of post exposure PQIP to untreated, ALDH1A1 expression [4]: 0.56 fold | Fold change of post exposure PQIP to untreated, CALD1 expression [4]: 1.5 fold | Fold change of post exposure PQIP to untreated, MAP2K6 expression [4]: 0.87 fold | Fold change of post exposure PQIP to untreated, MT1E expression [4]: 12.5 fold | Fold change of post exposure PQIP to untreated, MT1F expression [4]: 10.8 fold | Fold change of post exposure PQIP to untreated, MT1G expression [4]: 4.5 fold | Fold change of post exposure PQIP to untreated, MT1H expression [4]: 11.0 fold | Fold change of post exposure PQIP to untreated, MT1M expression [4]: 15.2 fold | Fold change of post exposure PQIP to untreated, MT1X expression [4]: 16.0 fold | Fold change of post exposure PQIP to untreated, MT2A expression [4]: 8.1 fold | effect on phosphorylated IGF1R, PQIP in combination with SN38 or Oxaliplatin ([5]; PQIP 0.4 μmol/L plus SN38 0.004 μmol/L or Oxaliplatin 1.0 μmol/L): inhibited | effect on phosphorylated IGF1R, agent alone ([5]; PQIP 0.4 μmol/L, SN38 0.004 μmol/L, Oxaliplatin 1.0 μmol/L): inhibited
